{"source": "patent US7291628B2", "about": "“Treatment of cocaine abuse using N-substituted derivatives of morphinan” (McLean Hospital Corporation, priority 2001, dated 2007)", "key": {"δ opioid receptor": {"molecular_target": "T1, δ opioid receptor (Cavia porcellus, UniProt A0A286XTF2)", "T1 construct": "from tissue; host or cells: guinea pig brain membranes", "experiment": "competitive binding assay with [3H]naltrindole in guinea pig brain membranes"}, "κ opioid receptor": {"molecular_target": "T2, κ opioid receptor (Cavia porcellus, UniProt P41144)", "T2 construct": "from tissue; host or cells: guinea pig brain membranes", "experiment": "competitive binding assay with [3H]U69,593 in guinea pig brain membranes", "details": "for affinity for the κ opioid receptor, in words: comparator, if any, as in the value; for increase in affinity at the κ opioid receptor: relative to levorphanol; for κ/δ selectivity: κ versus δ binding"}, "μ opioid receptor": {"molecular_target": "μ opioid receptor (Cavia porcellus, UniProt A0ACM8Q262)", "experiment": "competitive binding assay with [3H]DAMGO in guinea pig brain membranes", "details": "for affinity for the μ opioid receptor, in words: comparator, if any, as in the value; for pKi: read-out: Ki, μ opioid receptor, [3H]DAMGO, guinea pig brain membranes"}}, "note": "pKi: −log10 of the molar value. Entries after “also recorded” stand apart in the source; their conditions may differ."}
{"smiles": "Oc1ccc2c(c1)[C@@]13CCCC[C@H]1[C@@H](C2)N(CCCF)CC3", "note": "[Compound 3]", "values": [{"measurement": "pKi", "setting": "δ opioid receptor", "value": 9.07}, {"measurement": "pKi", "setting": "κ opioid receptor", "value": 10.08}, {"measurement": "affinity for the κ opioid receptor, in words", "setting": "κ opioid receptor", "value": "high affinity"}, {"measurement": "affinity for the μ opioid receptor, in words", "setting": "μ opioid receptor", "value": "high affinity"}, {"measurement": "pKi", "setting": "μ opioid receptor", "value": 9.74}]}
{"smiles": "COCCN1CC[C@]23CCCC[C@H]2[C@H]1Cc1ccc(O)cc13", "note": "[Compound 6]", "values": [{"measurement": "pKi", "setting": "κ opioid receptor", "value": 10.03}, {"measurement": "affinity for the κ opioid receptor, in words", "setting": "κ opioid receptor", "value": "high affinity"}, {"measurement": "affinity for the μ opioid receptor, in words", "setting": "μ opioid receptor", "value": "high affinity"}, {"measurement": "pKi", "setting": "μ opioid receptor", "value": 9.96}]}
{"smiles": "C=CCN1CC[C@]23CCCC[C@H]2[C@H]1Cc1ccc(O)cc13", "note": "[Compound 8, levallorphan, reference compound]", "values": [{"measurement": "change in affinity for the δ opioid receptor, in words", "setting": "δ opioid receptor; relative to levorphanol", "value": "almost no changes in affinity"}, {"measurement": "increase in affinity at the κ opioid receptor", "setting": "κ opioid receptor", "value": 15, "unit": "fold"}, {"measurement": "change in affinity for the μ opioid receptor, in words", "setting": "μ opioid receptor; relative to levorphanol", "value": "almost no changes in affinity"}]}
{"smiles": "I/C=C/CN1CC[C@]23CCCC[C@H]2[C@H]1Cc1ccccc13", "note": "[Compound 34, N-(3-iodoprop-(2E)-enyl)morphinan]", "values": [{"measurement": "decreased affinity for the δ opioid receptor", "setting": "δ opioid receptor; in comparison to compound 9", "value": 43, "unit": "fold"}, {"measurement": "affinity for the κ opioid receptor, in words", "setting": "κ opioid receptor", "value": "Ki values in the picomolar range; also recorded: very high affinity"}, {"measurement": "decreased affinity for the κ opioid receptor", "setting": "κ opioid receptor; in comparison to compound 9", "value": 10, "unit": "fold"}, {"measurement": "affinity for the μ opioid receptor, in words", "setting": "μ opioid receptor", "value": "Ki values in the picomolar range; also recorded: very high affinity"}]}
{"smiles": "I/C=C\\CN1CC[C@]23CCCC[C@H]2[C@H]1Cc1ccccc13", "note": "[Compound 35, N-(3-iodoprop-(2Z)-enyl)morphinan]", "values": [{"measurement": "decreased affinity for the κ receptor", "setting": "κ opioid receptor; relative to 34", "value": 17, "unit": "fold"}, {"measurement": "decreased affinity for the μ receptor", "setting": "μ opioid receptor; relative to 34", "value": 100, "unit": "fold"}]}
{"smiles": "Oc1ccc2c(c1)[C@@]13CCCC[C@H]1[C@@H](C2)N(CC1CCC1)CC3", "note": "[MCL-101, reference compound]", "values": [{"measurement": "increase in affinity at the δ opioid receptor", "setting": "δ opioid receptor; relative to levorphanol", "value": 3, "unit": "fold"}, {"measurement": "affinity for the κ opioid receptor, in words", "setting": "κ opioid receptor", "value": "almost the same affinity for the μ and κ opioid receptors as cyclorphan"}, {"measurement": "increase in affinity at the κ opioid receptor", "setting": "κ opioid receptor", "value": 30, "unit": "fold"}, {"measurement": "κ/δ selectivity", "setting": "κ opioid receptor", "value": 18, "unit": "fold"}, {"measurement": "affinity for the μ opioid receptor, in words", "setting": "μ opioid receptor", "value": "almost the same affinity for the μ and κ opioid receptors as cyclorphan"}, {"measurement": "increase in affinity at the μ opioid receptor", "setting": "μ opioid receptor; relative to levorphanol", "value": 2, "unit": "fold"}]}
{"smiles": "Oc1ccc2c(c1)[C@@]13CCCC[C@H]1[C@@H](C2)N(CC1CC1)CC3", "note": "[cyclorphan, reference compound]", "values": [{"measurement": "κ/δ selectivity", "setting": "κ opioid receptor", "value": 4, "unit": "fold"}]}
